Measured values taken from patent US9346815B2, “5-chloro-2-difluoromethoxyphenyl pyrazolopyrimidine compounds, compositions and methods of use thereof” (Genentech, Inc., priority 2014, dated 2016).

Experiments:
[1] = molecular target: isolated recombinant JAK1 kinase domain (Homo sapiens (Human), UniProt P23458); test: JAK1 enzyme assay (Caliper LabChip, peptide phosphorylation); type: biochemical; conditions: isolated recombinant JAK1 kinase domain, 25 μM ATP
[2] = molecular target: isolated recombinant JAK2 kinase domain (Homo sapiens (Human), UniProt O60674); test: JAK2 enzyme assay (Caliper LabChip, peptide phosphorylation); type: biochemical; conditions: 25 μM ATP
Chain of isolated recombinant JAK2 kinase domain (O60674 849-1124): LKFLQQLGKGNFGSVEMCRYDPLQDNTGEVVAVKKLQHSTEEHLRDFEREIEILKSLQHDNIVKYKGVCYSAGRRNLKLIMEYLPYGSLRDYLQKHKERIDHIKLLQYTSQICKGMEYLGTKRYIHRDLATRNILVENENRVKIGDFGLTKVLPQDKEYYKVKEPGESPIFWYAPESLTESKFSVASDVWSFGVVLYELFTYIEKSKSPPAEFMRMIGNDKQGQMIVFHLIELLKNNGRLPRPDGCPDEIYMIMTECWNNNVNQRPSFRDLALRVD

Chain of isolated recombinant JAK1 kinase domain (P23458 875-1153): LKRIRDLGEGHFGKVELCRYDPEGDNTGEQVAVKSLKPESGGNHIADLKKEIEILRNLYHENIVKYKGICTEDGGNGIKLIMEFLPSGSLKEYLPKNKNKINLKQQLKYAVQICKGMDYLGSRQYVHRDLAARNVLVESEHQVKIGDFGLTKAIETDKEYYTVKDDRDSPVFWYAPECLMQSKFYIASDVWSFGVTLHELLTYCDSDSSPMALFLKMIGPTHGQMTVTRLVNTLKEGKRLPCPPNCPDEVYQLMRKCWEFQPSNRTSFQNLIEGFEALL

| Compound | Ki [1] | Ki [2] |
| --- | --- | --- |
| Nc1nn2cccnc2c1C(=O)Nc1cn(CC(=O)N2CCC(Oc3ccccc3)CC2)nc1-c1cc(Cl)ccc1OC(F)F [Example 285, 2-amino-N-[3-[5-chloro-2-(difluoromethoxy)phenyl]-1-[2-oxo-2-(4-phenoxy-1-piperidyl)ethyl]pyrazol-4-yl]pyrazolo[1,5-a]pyrimidine-3-carboxamide] | 610 pM | 470 pM |
| CN1CCC2(CC1)CN(C(=O)Cn1cc(NC(=O)c3cnn4cccnc34)c(-c3cc(Cl)ccc3OC(F)F)n1)CCO2 [Example 213, N-[3-[5-chloro-2-(difluoromethoxy)phenyl]-1-[2-(9-methyl-1-oxa-4,9-diazaspiro[5.5]undecan-4-yl)-2-oxo-ethyl]pyrazol-4-yl]pyrazolo[1,5-a]pyrimidine-3-carboxamide] | 1490 pM | 2340 pM |
| Nc1nn2cccnc2c1C(=O)Nc1cn(CC(=O)N2CCOC(CO)C2)nc1-c1cc(Cl)ccc1OC(F)F (stereo not drawn) [Example 273, 2-amino-N-[3-[5-chloro-2-(difluoromethoxy)phenyl]-1-[2-[2-(hydroxy-methyl)morpholin-4-yl]-2-oxo-ethyl]pyrazol-4-yl]pyrazolo[1,5-a]pyrimidine-3-carboxamide] | 490 pM | 230 pM |
| O=C(Nc1cn(CC(=O)N2CCCN(CCO)CC2)nc1-c1cc(Cl)ccc1OC(F)F)c1cnn2cccnc12 [Example 240, N-[3-[5-chloro-2-(difluoromethoxy)phenyl]-1-[2-[4-(2-hydroxyethyl)-1,4-diazepan-1-yl]-2-oxo-ethyl]pyrazol-4-yl]pyrazolo[1,5-a]pyrimidine-3-carboxamide] | 1000 pM | 1680 pM |
| N#CC1(c2ccccc2)CCN(C(=O)Cn2cc(NC(=O)c3c(N)nn4cccnc34)c(-c3cc(Cl)ccc3OC(F)F)n2)CC1 [Example 283, 2-amino-N-[3-[5-chloro-2-(difluoromethoxy)phenyl]-1-[2-(4-cyano-4-phenyl-1-piperidyl)-2-oxo-ethyl]pyrazol-4-yl]pyrazolo[1,5-a]pyrimidine-3-carboxamide] | 550 pM | 290 pM |
| O=C(Nc1sc(N2CCN(CCc3ccccc3)CC2)nc1-c1cc(Cl)ccc1OC(F)F)c1cnn2cccnc12 [Example 206, N-[4-[5-chloro-2-(difluoromethoxy)phenyl]-2-[4-(2-phenylethyl)piperazin-1-yl]thiazol-5-yl]pyrazolo[1,5-a]pyrimidine-3-carboxamide] | 14000 pM | 8670 pM |
| O=C(Nc1cn(CC(=O)N2CCC(O)(CO)CC2)nc1-c1cc(Cl)ccc1OC(F)F)c1cnn2cccnc12 [Example 272, N-[3-[5-chloro-2-(difluoromethoxy)phenyl]-1-[2-[4-hydroxy-4-(hydroxymethyl)-1-piperidyl]-2-oxo-ethyl]pyrazol-4-yl]pyrazolo[1,5-a]pyrimidine-3-carboxamide] | 330 pM | 780 pM |
| CN1CCN(C(=O)Cn2cc(NC(=O)c3cnn4cccnc34)c(-c3cc(Cl)ccc3OC(F)F)n2)C[C@@H]1CO [Example 234, N-[3-[5-chloro-2-(difluoromethoxy)phenyl]-1-[2-[(3R)-3-(hydroxymethyl)-4-methyl-piperazin-1-yl]-2-oxo-ethyl]pyrazol-4-yl]pyrazolo[1,5-a]pyrimidine-3-carboxamide] | 580 pM | 1220 pM |
| O=C(Nc1cn(CC(=O)N2CCC(F)(F)C2)nc1-c1cc(Cl)ccc1OC(F)F)c1cnn2cccnc12 [Example 287, N-[3-[5-chloro-2-(difluoromethoxy)phenyl]-1-[2-(3,3-difluoropyrrolidin-1-yl)-2-oxo-ethyl]pyrazol-4-yl]pyrazolo[1,5-a]pyrimidine-3-carboxamide] | 350 pM | 650 pM |
| CCOC(=O)CN(CCn1cc(NC(=O)c2cnn3cccnc23)c(-c2cc(Cl)ccc2OC(F)F)n1)Cc1cccnc1 [Example 362, ethyl 2-[(2-[3-[5-chloro-2-(difluoromethoxy)phenyl]-4-[pyrazolo[1,5-a]pyrimidine-3-amido]-1H-pyrazol-1-yl]ethyl)(pyridin-3-ylmethyl)amino]acetate] | 5040 pM | 3270 pM |
| Nc1nn2cccnc2c1C(=O)Nc1cn(CC(=O)N2CC3CNCC3C2)nc1-c1cc(Cl)ccc1OC(F)F (stereo not drawn) [Example 10, N-[1-[2-(2,3,3a,4,6,6a-hexahydro-1H-pyrrolo[3,4-c]pyrrol-5-yl)-2-oxo-ethyl]-3-[5-chloro-2-(difluoromethoxy)phenyl]pyrazol-4-yl]-2-amino-pyrazolo[1,5-a]pyrimidine-3-carboxamide] | 650 pM | 320 pM |
| CN(CCc1ccccc1)Cc1nc(-c2cc(Cl)ccc2OC(F)F)c(NC(=O)c2cnn3cccnc23)s1 [Example 261, N-[4-[5-chloro-2-(difluoromethoxy)phenyl]-2-[[methyl(2-phenylethyl)amino]methyl]thiazol-5-yl]pyrazolo[1,5-a]pyrimidine-3-carboxamide] | 17900 pM | 10200 pM |
| CN(C)CCOC1CCN(C(=O)Cn2cc(NC(=O)c3c(N)nn4cccnc34)c(-c3cc(Cl)ccc3OC(F)F)n2)CC1 [Example 137, 2-amino-N-[3-[5-chloro-2-(difluoromethoxy)phenyl]-1-[2-[4-[2-(dimethylamino)ethoxy]-1-piperidyl]-2-oxo-ethyl]pyrazol-4-yl]pyrazolo[1,5-a]pyrimidine-3-carboxamide] | 530 pM | 720 pM |
| O=C(Nc1cn(CC(=O)N2CCN(CCCO)CC2)nc1-c1cc(Cl)ccc1OC(F)F)c1cnn2cccnc12 [Example 230, N-[3-[5-chloro-2-(difluoromethoxy)phenyl]-1-[2-[4-(3-hydroxypropyl)piperazin-1-yl]-2-oxo-ethyl]pyrazol-4-yl]pyrazolo[1,5-a]pyrimidine-3-carboxamide] | 610 pM | 710 pM |
| CN(CC1(C#N)CCCCC1)C1CCN(C(=O)c2ccc(-n3cc(NC(=O)c4cnn5cccnc45)c(-c4cc(Cl)ccc4OC(F)F)n3)cc2)CC1 [Example 187, N-[3-[5-chloro-2-(difluoromethoxy)phenyl]-1-[4-[4-[(1-cyanocyclohexyl)methyl-methyl-amino]piperidine-1-carbonyl]phenyl]pyrazol-4-yl]pyrazolo[1,5-a]pyrimidine-3-carboxamide] | 7050 pM | 9030 pM |
